Source: ChEMBL document CHEMBL3864122, “Antibacterial sulfur-containing platensimycin and platencin congeners from Streptomyces platensis SB12029” (2016)

What was measured:
Micrococcus luteus = assay: Antibacterial activity against Micrococcus luteus ATCC 9431 measured after 18 hrs by broth dilution method; type: functional; settings: ATCC 9431, 18 h
Staphylococcus aureus = assay: Antibacterial activity against methicillin-sensitive Staphylococcus aureus ATCC 25923 measured after 18 hrs by broth dilution method; type: functional; settings: ATCC 25923, 18 h

SMILES	MIC (Micrococcus luteus)	MIC (Staphylococcus aureus)
C[C@]12C[C@@]34C=CC(=O)[C@@](C)(CCC(=O)Nc5c(O)ccc(C(=O)S[C@H]6CC(=O)[C@@](C)(CCC(=O)Nc7c(O)ccc(C(=O)O)c7O)[C@@H]7[C@@H]8C[C@@H]9C[C@]67C[C@]9(C)O8)c5O)[C@@H]3[C@H](C[C@@H]1C4)O2	0.28 µM	0.56 µM
COc1ccc(C(=O)SC)c(OC)c1NC(=O)CC[C@]1(C)C(=O)C=C[C@]23C[C@H]4C[C@H](O[C@@]4(C)C2)[C@H]31	64 µg/mL	> 64 µg/mL
C[C@]12C[C@@]34C=CC(=O)[C@@](C)(CCC(=O)Nc5c(O)ccc(C(=O)O)c5O)[C@@H]3[C@H](C[C@@H]1C4)O2	1.13 µM	1.13 µM
